# Test results from patent publication US20070037887A1, “Blockade of mtor to prevent a hormonal adaptive response” (University of Virginia Patent Foundation, priority 2003, published 2007).
# Tests used:
# MCF-7 cells [1] = assay: Apoptosis ELISA (Cell Death Detection Kit), MCF-7 cells; assay type: cell-based, human; conditions: three day treatment
# Protocol: FIG. 6 is a bar graph portraying data representing the induction of apoptosis in MCF-7 and LTED cells by FTS. Eighty thousand MCF-7 and LTED cells were plated into each well of 12-well plates in their culture media. Two days later, the cells were treated with FTS for 3 days. Apoptosis was measured using a Cell Death Detection Kit from Roche Molecular Biochemicals. Parallel plates subjected to identical treatment were prepared for cell counting. The results were expressed as the values of optical density at 405 nm per 10,000 cells.
# Applicants postulated that these cells might also have become sensitized to the pro-apoptotic effects of estradiol. To test this hypothesis, an ELISA assay was used to assess apoptosis and to compare the effects of estradiol in wild-type and LTED cells. […] The presence of apoptosis in LTED cells was confirmed by the measurement of annexin V and the use of time-lapse microscopy.
# The effect of a three day treatment with FTS on apoptosis in MCF-7 and LTED cells was examined using the ELISA assay for quantitation. […] LTED cells were much more sensitive than MCF-7 cells to the apoptotic effects of FTS.
# JNK = JNK activation in LTED cells cultured in vitro; assay type: cell-based, human
# Text: FIGS. 17A & 17B represent data showing the effects of FTS on JNK activation in LETD cells cultured in vitro.
# FIGS. 17A & 17B represent data showing the effects of FTS on JNK activation in LTED cells cultured in vitro. […] JNK activation has been reported to be associated with apoptosis.
# mTOR-raptor complex = molecular target: T1, mTOR-raptor complex (Homo sapiens, UniProt P42345+Q8N122); assay: Coimmunoprecipitation of raptor with mTOR from 293T cells incubated with compound; assay type: cell-based; conditions: nontransfected 293T cells
# T1 construct: expressed in transfected cells; host or cells: 293T
# Protocol: FIG. 11A & 11B represent data showing FTS inhibits PHAS-I phosphorylation and promotes dissociation of the mTOR-raptor complex in 293T cells. 293T cells were transfected with pcDNA3AU1-mTOR, pcDNA33HARaptor, pcDNA33HA-mLST8, and pCMV-Tag3APHAS-I (FIG. 11A). After 18 h the cells were incubated for 1 h with increasing concentrations of FTS before extracts were prepared. A sample of each extract was subjected to SDS-PAGE and immunoblotted to detect PHAS-I or PThr^36/45. AU1-mTOR was also immunoprecipitated from each extract, and immune complexes were subjected to SDSPAGE and immunoblotted with mTAb2, to detect mTOR, and with anti-HA antibodies, to detect HA-mLST8 and HA-raptor. Nontransfected 293T cells were incubated with increasing concentrations of FTS for 1 h before extracts were prepared. mTOR was immunoprecipitated with mTAb1, and samples were subjected to SDS-PAGE.
# FIGS. 12A & 12B represent data showing the effects of incubating cells with increasing concentrations of FTS and GTS on mTOR activity and mTOR association with raptor and mLST8. AU1-mTOR, HA-raptor, and HAmLST8 were overexpressed in 293T cells. The cells were then incubated for 1 h with increasing concentrations of FTS (●, ▴, ▪) or GTS (∘, Δ, □) before extracts were prepared. Immunoprecipitations were then conducted with anti-AU1 antibodies. mTOR kinase activity (●, ∘) was determined by measuring ^32P incorporation into [His^6]PHAS-I in immune complex kinases assays performed with [γ-^32P]ATP. The relative amounts of HA-raptor (▴, Δ) and HA-mLST8 (▪, □) that coimmunoprecipitated with AU1-mTOR were determined after immunoblotting with anti-HA antibodies. The results (mean values±S.E. from 3 experiments) are expressed as percentages of the mTOR activity (FIG. 12A) or coimmunoprecipitating proteins (FIG. 12B) from samples incubated without FTS or GTS, and have been corrected for the amounts of AU1-mTOR immunoprecipitated.
# To investigate further the inhibitory effects of FTS on mTOR signaling, the effect of the drug on the association of mTOR, raptor, and mLST8 was determined. AU1-mTOR and HA-tagged forms of raptor and mLST8 were overexpressed in 293T cells, which were then incubated with increasing concentrations of FTS before AU1-mTOR was immunoprecipitated with anti-AU1 antibodies. Immunoblots were prepared with anti-HA antibodies to assess the relative amounts of HA-raptor and HA-mLST8 that coimmunoprecipitated with AU 1-mTOR (FIG. 11A).
# Results obtained with overexpressed proteins are not necessarily representative of responses of endogenous proteins. Therefore, experiments were conducted to investigate the effect FTS on the endogenous TORC1 in nontransfected cells. […]
# MCF-7 cells [2] = assay: Growth of MCF-7 cells (cell number); assay type: cell-based, human
# Protocol: FIG. 3 represents the effect of FTS on the growth of MCF-7, LTED, and MCF-10A cells. Sixty thousand cells were plated into each well of 6-well plates. Two days later, the cells were treated in triplicate for five days with FTS at indicated concentrations. The results (mean±S.E.) are expressed as percentage of the vehicle control.
# FIG. 4 represents the effect of FTS on E2 stimulated growth of MCF-7 and LTED cells. Thirty thousand cells were plated into each well of 6-well plates. Two days later, the cells were re-fed with IMEM containing 5% DCC-FBS. After another two days, cells were treated in triplicate with estradiol (10^−10 M) plus various concentrations of FTS for five days. In LTED cells, fulvestrant (10^−9 M) was included in all wells to block the effect of residual estrogen in the culture. The results (mean±S.E.) are expressed as percentage of cell number from the wells containing E2.
# The effect of FTS on growth of breast cancer cells was examined in two different cell lines: MCF-7 wild type cells which represent a model for untreated breast cancer and LTED cells as a model of cells adapting to endocrine treatment. Cells were grown in their culture media and treated with FTS for five days. […] The effect of FTS on E2-stimulated growth of MCF-7 and LTED cells was the examined. Five-day treatment of MCF-7 cells with E2 (10^−10 M) increased cell number by 8-fold compared with the vehicle control. Addition of FTS reduced cell number in a dose-dependent manner with about 50% inhibition at the concentration of 50 μM […]. […] The extent of inhibition of E2-stimulated cell growth by FTS was similar in these two cell lines.
# Solubility in buffer = assay type: physicochemical
smiles,measurement,setting,value
"CC(C)=CCC/C(C)=C/CC/C(C)=C/CSc1ccccc1C(=O)O [FTS, farnesylthiosalicylic acid]",induction of apoptosis,MCF-7 cells [1]; FTS 75 μM,dramatic increase in apoptosis
same,induction of apoptosis,MCF-7 cells [1]; FTS 20 and 50 μM,did not induce apoptosis
same,JNK activation,JNK,stimulates JNK activation
same,amount of endogenous raptor that coimmunoprecipitated with mTOR,mTOR-raptor complex,markedly decreased
same,inhibition at 50 µM,"MCF-7 cells [2]; Homo sapiens, MCF7, 120 h, read-out: inhibition of E2-stimulated growth (cell number)",~50%
same,basal growth,"MCF-7 cells [2]; culture media, five days",dose-dependently inhibited
same,solubility in buffer,Solubility in buffer,only limited solubility
